Format in all cases: functional
Assay [1] in a line: Selectivity ratio of GI50 for human MCF7 cells to GI50 for human MCF7/ADR cells.
For assay [2], the system named is MCF7. The assay can be described thus: Antiproliferative activity against human MCF7 cells after 96 hrs by MTT assay. Conditions: MCF7, 96 h.
Assay [3] has as its system NCI/ADR-RES. As to the kind of experiment: Antiproliferative activity against human MCF7/ADR cells after 96 hrs by MTT assay. (In general: Tetrazolium dyes change colour on reduction, which living cells bring about.)
The subject of assay [4] is MDA-MB-231. The assay can be described thus: Antiproliferative activity against human MDA-MB-231 cells after 96 hrs by MTT assay. Conditions: MDA-MB-231, 96 h.
Assay [5] concerns PC-3. As to the kind of experiment: Antiproliferative activity against human PC3 cells after 96 hrs by MTT assay. Conditions: PC-3, 96 h.
Assay [6] concerns NB-4. The assay can be described thus: Antiproliferative activity against human NB4 cells after 96 hrs by MTT assay. Conditions: NB-4, 96 h.
In assay [7] the test system is K562. The assay can be described thus: Antiproliferative activity against human K562 cells after 96 hrs by MTT assay. Conditions: K562, 96 h.
In assay [8] the test system is HL-60. The assay can be described thus: Antiproliferative activity against human HL60 cells after 96 hrs by MTT assay. Conditions: HL-60, 96 h.
The test system of assay [9] is LNCaP. The assay can be described thus: Antiproliferative activity against human LNCAP cells after 96 hrs by MTT assay.
Assay [10] deals with U-937. The assay can be described thus: Antiproliferative activity against human U937 cells after 96 hrs by MTT assay. Conditions: U-937, 96 h.

A word on the GI50: it is the concentration that inhibits growth by half. Read a low GI50 as greater sensitivity of the cells. For `CC(=O)N1N=C(c2ccc(O)cc2)CC1c1ccccc1` (configuration not stated), the RatioGI50 in [1] stood at 0.77. Besides, the results for the GI50 in [2] and in assay [3] were 29100 nM and 38000 nM, respectively.
On to `CC(=O)N1N=C(c2ccc(O[C@@H]3O[C@@H]4O[C@@]5(C)CC[C@H]6[C@H](C)CC[C@@H]([C@H]3C)[C@@]46OO5)cc2)CC1c1ccccc1` (some centres not stated), for which, in assay [1], the RatioGI50 worked out at 14.2. In addition, the GI50 in [2] is 570 nM; in [3] it was 50 nM; in [4], 1230 nM.
In the same order, the values of `COc1ccc(C2CC(c3ccc(O[C@H]4O[C@@H]5O[C@@]6(C)CC[C@H]7[C@H](C)CC[C@@H]([C@H]4C)[C@@]57OO6)cc3)=NN2C(C)=O)cc1` (some centres not stated) are 11.4, 320 nM, 28 nM and 500 nM.
In the same order, the values of `CC(=O)N1N=C(c2ccc(O[C@H]3O[C@@H]4O[C@@]5(C)CC[C@H]6[C@H](C)CC[C@@H]([C@H]3C)[C@@]46OO5)cc2)CC1c1ccc(Cl)cc1` (some centres not stated) are 7.3, 220 nM, 30 nM and 160 nM.
With `COc1ccc(-c2cc(-c3ccc(O[C@@H]4O[C@@H]5O[C@@]6(C)CC[C@H]7[C@H](C)CC[C@@H]([C@H]4C)[C@@]57OO6)cc3)n[nH]2)cc1`, the RatioGI50 in assay [1] is given as 8.5. Moreover, the results for the GI50 in assay [2], in assay [3] and in [4] were 440 nM, 52 nM and 1420 nM, respectively.
In the same order, the values of `COc1ccc(C2CC(c3ccc(O[C@@H]4O[C@@H]5O[C@@]6(C)CC[C@H]7[C@H](C)CC[C@@H]([C@H]4C)[C@@]57OO6)cc3)=NN2C(C)=O)cc1` (some centres not stated) are 5.9, 300 nM, 51 nM and 990 nM.
Taken in the same sequence, the figures for `COc1cccc2c1C(=O)c1c(O)c3c(c(O)c1C2=O)C[C@@](O)(C(=O)CO)C[C@@H]3O[C@H]1C[C@H](N)[C@H](O)[C@H](C)O1.Cl` [DOXORUBICIN HYDROCHLORIDE] were 0.1, 54 nM, 540 nM and 120 nM.
Take `CC(=O)N1N=C(c2ccc(O[C@H]3O[C@@H]4O[C@@]5(C)CC[C@H]6[C@H](C)CC[C@@H]([C@H]3C)[C@@]46O5)cc2)CC1c1ccccc1` (some centres not stated): in assay [2], it took 11000 nM to inhibit growth by half (GI50).
For `C[C@H]1[C@@H](Oc2ccc(-c3cc(-c4ccc(Br)cc4)[nH]n3)cc2)O[C@@H]2O[C@@]3(C)CC[C@H]4[C@H](C)CC[C@@H]1[C@@]24OO3`, the RatioGI50 in assay [1] was 10.3. Also, the GI50 was 340 nM in assay [2], 33 nM in assay [3] and 410 nM in [4].
Take `C[C@H]1[C@@H](Oc2ccc(-c3cc(-c4ccc(Cl)cc4)[nH]n3)cc2)O[C@@H]2O[C@@]3(C)CC[C@H]4[C@H](C)CC[C@@H]1[C@@]24OO3`: the RatioGI50 in [1] worked out at 3.6. Further, the GI50 in assay [2] amounted to 190 nM; in assay [3], 55 nM; in [4] it was 920 nM.
In the case of `Oc1ccc(-c2cc(-c3ccccc3)n[nH]2)cc1`, in [1], the RatioGI50 is 1.66. The results for the GI50 in assay [2] and in assay [3] were 21200 nM and 18200 nM, respectively.
For `COc1ccc(-c2cc(-c3ccc(O[C@H]4O[C@@H]5O[C@@]6(C)CC[C@H]7[C@H](C)CC[C@@H]([C@H]4C)[C@@]57OO6)cc3)n[nH]2)cc1`, the RatioGI50 in assay [1] was found to be 20. In addition, the GI50 in assay [2] amounted to 560 nM; in assay [3], 28 nM; in assay [4], 870 nM.
`C[C@H]1[C@H](Oc2ccc(-c3cc(-c4ccc(Cl)cc4)[nH]n3)cc2)O[C@@H]2O[C@@]3(C)CC[C@H]4[C@H](C)CC[C@@H]1[C@@]24OO3`: in [1], the RatioGI50 is 14.2. In addition, the GI50 in assay [2] is 440 nM; in assay [3] it was 31 nM; in assay [4], 630 nM.
Taken in the same sequence, the figures for `COc1ccc(-c2cc(-c3ccc(O[C@@H]4O[C@@H]5O[C@@]6(C)CC[C@H]7[C@H](C)CC[C@@H]([C@H]4C)[C@@]57OO6)cc3)n[nH]2)c(OC)c1` were 12.2, 500 nM, 41 nM and 760 nM.
On to `CC(=O)N1N=C(c2ccc(O[C@@H]3O[C@@H]4O[C@@]5(C)CC[C@H]6[C@H](C)CC[C@@H]([C@H]3C)[C@@]46OO5)cc2)CC1c1ccc(Cl)cc1` (some centres not stated), for which the RatioGI50 in assay [1] amounted to 14.3. Besides, the GI50 came out at 500 nM in assay [2], 35 nM in assay [3] and 400 nM in assay [4].
Taken in the same sequence, the figures for `CC(=O)N1N=C(c2ccc(O[C@@H]3O[C@@H]4O[C@@]5(C)CC[C@H]6[C@H](C)CC[C@@H]([C@H]3C)[C@@]46OO5)cc2)CC1c1ccc(Br)cc1` (some centres not stated) were 6.5, 980 nM, 150 nM and 580 nM.
Taken in the same sequence, the figures for `C[C@H]1[C@H](Oc2ccc(-c3cc(-c4ccc(Br)cc4)[nH]n3)cc2)O[C@@H]2O[C@@]3(C)CC[C@H]4[C@H](C)CC[C@@H]1[C@@]24OO3` were 14.7, 440 nM, 30 nM and 550 nM.
Taken in the same sequence, the figures for `COc1ccc(C2CC(c3ccc(O[C@@H]4O[C@@H]5O[C@@]6(C)CC[C@H]7[C@H](C)CC[C@@H]([C@H]4C)[C@@]57OO6)cc3)=NN2C(C)=O)c(OC)c1` (some centres not stated) were 6.6, 380 nM, 58 nM and 580 nM.
As to `COc1ccc(C2CC(c3ccc(O[C@H]4O[C@@H]5O[C@@]6(C)CC[C@H]7[C@H](C)CC[C@@H]([C@H]4C)[C@@]57OO6)cc3)=NN2C(C)=O)c(OC)c1` (some centres not stated), the RatioGI50 in assay [1] turned out to be 20. Further, the GI50 in [2] was 500 nM; in assay [3], 25 nM; in assay [4], 240 nM.
`C[C@H]1[C@@H](O)O[C@@H]2O[C@@]3(C)CC[C@H]4[C@H](C)CC[C@@H]1[C@@]24OO3` [ARTENIMOL]: in assay [1], the RatioGI50 is listed as 10. Further, the GI50 was more than 10000 nM in assay [5]; 151 nM in assay [6]; more than 10000 nM in assay [7]; 191 nM in [8]; more than 10000 nM in assay [9]; 12600 nM in assay [4]. The GI50 in [10] was found to be 910 nM.
As to `C[C@@H]1CC[C@H]2[C@@H](C)C(O)O[C@@H]3O[C@@]4(C)CC[C@@H]1[C@]32O4` (some centres not stated), the GI50 in assay [2] is more than 400000 nM.
Regarding `CC(=O)N1N=C(c2ccc(O[C@H]3O[C@@H]4O[C@@]5(C)CC[C@H]6[C@H](C)CC[C@@H]([C@H]3C)[C@@]46OO5)cc2)CC1c1ccc(Br)cc1` (some centres not stated), the RatioGI50 in assay [1] is 11.5. The GI50 in assay [2] stood at 300 nM; in assay [3] it was 26 nM; in assay [4], 370 nM.
Taken in the same sequence, the figures for `C[C@H]1[C@H](Oc2ccc(-c3cc(-c4ccccc4)[nH]n3)cc2)O[C@@H]2O[C@@]3(C)CC[C@H]4[C@H](C)CC[C@@H]1[C@@]24OO3` were 13.7, 260 nM, 19 nM and 960 nM.
Taken in the same sequence, the figures for `COc1ccc(-c2cc(-c3ccc(O[C@H]4O[C@@H]5O[C@@]6(C)CC[C@H]7[C@H](C)CC[C@@H]([C@H]4C)[C@@]57OO6)cc3)n[nH]2)c(OC)c1` were 10, 330 nM, 33 nM and 670 nM.
